Assay results as given in patent publication US9346795B2, “Substituted sulfonamides useful as antiapoptotic Bcl inhibitors” (Bristol-Myers Squibb Company, priority 2011, dated 2016).

Columns and labels:
[1] = target: Bcl-xL (Homo sapiens (Human), UniProt Q07817); assay: Bcl-xL/Bim Fluorescence Resonance Energy Transfer Assay (FRET); assay type: binding
Protocol: Bcl-xL/Bim Fluorescence Resonance Energy Transfer Assay (FRET) The assays were performed in black flat-bottom 384-well plates. The final assay volume was 55 μl prepared from additions of Biotin-Bcl-xL (Bcl-xL: GENBANK® Accession No. […] The reaction was incubated at room temperature for 60 minutes. After 60 minutes, 5 μL of Streptavidin-Terbium FRET detection reagent (Perkin Elmer) was added to the reaction mixture and incubated at room temperature in the dark for 30 mins. […] Compounds were dissolved at 10 mM in dimethylsulfoxide (DMSO) and evaluated at eleven concentrations. IC50 values were derived by non-linear regression analysis.

[2] = target: Bcl-2 (Homo sapiens (Human), UniProt P10415); assay: Bcl-2/Bim Fluorescence Polarization Assay (FPA); assay type: binding
Bcl-2, sequence (P10415 whole entry): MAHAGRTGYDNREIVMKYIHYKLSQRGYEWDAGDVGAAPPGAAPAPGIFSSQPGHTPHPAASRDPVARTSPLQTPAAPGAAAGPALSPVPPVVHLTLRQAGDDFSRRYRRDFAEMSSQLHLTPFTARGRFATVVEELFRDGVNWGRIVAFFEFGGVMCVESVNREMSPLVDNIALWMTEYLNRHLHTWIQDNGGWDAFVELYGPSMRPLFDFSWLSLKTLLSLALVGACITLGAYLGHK
Protocol: Bcl-2/Bim Fluorescence Polarization Assay (FPA)
The assays were performed in black flat-bottom 384-well plates. […] The reaction was incubated at room temperature for 60 minutes and fluorescence polarization of the reaction was detected on the LJL Plate Reader. Inhibition data were calculated from mP values generated by the no protein control reactions for 100% inhibition and vehicle-only reactions for 0% inhibition. The final concentrations of reagents in the assay were 4.9 nM BCL-2, 5 nM fluoresceinated 18-mer BIM peptide and 1% DMSO. […] Compounds were dissolved at 10 mM in dimethylsulfoxide (DMSO) and evaluated at eleven concentrations. IC50 values were derived by non-linear regression analysis.

Bcl-xL, sequence (Q07817 whole entry): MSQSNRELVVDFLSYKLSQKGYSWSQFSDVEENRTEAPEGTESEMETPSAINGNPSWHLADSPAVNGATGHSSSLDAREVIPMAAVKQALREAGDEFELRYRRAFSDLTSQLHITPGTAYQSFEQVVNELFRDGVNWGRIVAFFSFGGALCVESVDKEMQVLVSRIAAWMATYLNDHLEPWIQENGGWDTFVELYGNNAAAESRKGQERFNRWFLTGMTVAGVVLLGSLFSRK

| SMILES | IC50 [1] [nM] | IC50 [2] [nM] |
| --- | --- | --- |
| CCCCN(CCCC)C(=O)c1nn(-c2ccc(C(=O)NS(=O)(=O)c3ccc4ccc(C(=O)N(C)C)cc4c3)cc2C(=O)N2CCc3ccccc3C2)c(C)c1Cl [Example 48, N,N-Dibutyl-4-chloro-1-(4-(7-(dimethylcarbamoyl)naphthalen-2-ylsulfonylcarbamoyl)-2-(1,2,3,4-tetrahydroisoquinoline-2-carbonyl)phenyl)-5-methyl-1H-pyrazole-3-carboxamide] | 80 | 150 |
| CCCCN(C(=O)c1nn(-c2ccc(C(=O)NS(=O)(=O)c3ccc4ccccc4c3)cc2C(=O)N2CCc3ccccc3C2)c(C)c1Cl)c1cccc(-c2cccc(Cl)c2)c1 [Example 152, N-butyl-4-chloro-N-(3′-chlorobiphenyl-3-yl)-5-methyl-1-(4-(naphthalen-2-ylsulfonylcarbamoyl)-2-(1,2,3,4-tetrahydroisoquinoline-2-carbonyl)phenyl)-1H-pyrazole-3-carboxamide] | 160 | 50 |
| CCCCc1c(-c2ccc(C(=O)NS(=O)(=O)c3ccc4ccccc4c3)cc2C(=O)N2CCc3ccccc3C2)c(CO)nn1-c1ccc(Oc2ccccc2)cc1 [Example 241, 4-(5-butyl-3-(hydroxymethyl)-1-(4-phenoxyphenyl)-1H-pyrazol-4-yl)-N-(naphthalen-2-ylsulfonyl)-3-(1,2,3,4-tetrahydroisoquinoline-2-carbonyl)benzamide] | 30 | 130 |
| CCCCN(CCCC)C(=O)c1nn(-c2ccc(C(=O)NS(=O)(=O)c3ccc4c(c3)CCN4C(=O)N3CCOCC3)cc2C(=O)N2CCc3ccccc3C2)c(C)c1Cl [Example 74, N,N-dibutyl-4-chloro-5-methyl-1-(4-(1-(morpholine-4-carbonyl)indolin-5-ylsulfonylcarbamoyl)-2-(1,2,3,4-tetrahydroisoquinoline-2-carbonyl)phenyl)-1H-pyrazole-3-carboxamide] | 60 | 340 |
| CCCCN(CCCC)C(=O)c1nn(-c2ccc(C(=O)NS(=O)(=O)c3ccc4cccc(OCCN5CCOCC5)c4c3)cc2C(=O)N2CCc3ccccc3C2)c(C)c1Cl [Example 27, N,N-dibutyl-4-chloro-5-methyl-1-(4-(8-(2-morpholinoethoxy)naphthalen-2-ylsulfonylcarbamoyl)-2-(1,2,3,4-tetrahydroisoquinoline-2-carbonyl)phenyl)-1H-pyrazole-3-carboxamide] | 40 | 110 |
| CCCCN(CCCC)C(=O)c1nn(-c2ccc(C(=O)NS(=O)(=O)c3ccc4ccc(OCc5ccccc5)cc4c3)cc2C(=O)N2CCc3ccccc3C2)c(C)c1Cl [Example 18, 1-(4-(7-(benzyloxy)naphthalen-2-ylsulfonylcarbamoyl)-2-(1,2,3,4-tetrahydroisoquinoline-2-carbonyl)phenyl)-N,N-dibutyl-4-chloro-5-methyl-1H-pyrazole-3-carboxamide] | 30 | 10 |
| CCCN(CCC)c1nn(-c2ccc(C(=O)NS(=O)(=O)c3ccc4cccc(Cl)c4c3)cc2C(=O)N2CCc3ccccc3C2)c(C(F)(F)F)c1Cl [Example 196, 4-(4-Chloro-3-(dipropylamino)-5-(trifluoromethyl)-1H-pyrazol-1-yl)-N-(8-chloronaphthalen-2-ylsulfonyl)-3-(1,2,3,4-tetrahydroisoquinoline-2-carbonyl)benzamide] | 510 | 40 |
| CCCCN(CCCC)C(=O)c1nn(-c2ccc(C(=O)NS(=O)(=O)c3ccc4ccccc4c3)cc2C(=O)N2Cc3ccccc3C[C@H]2COCCCOC)c(C)c1Cl [Example 105, N,N-Dibutyl-4-chloro-1-(2-((S)-3-((3-methoxypropoxy)methyl)-1,2,3,4-tetrahydroisoquinoline-2-carbonyl)-4-(naphthalen-2-ylsulfonylcarbamoyl)phenyl)-5-methyl-1H-pyrazole-3-carboxamide] | 30 | 20 |
| CCCN(CCC)c1nn(-c2ccc(C(=O)NS(=O)(=O)c3ccc4cccc(Cl)c4c3)cc2C(=O)N2Cc3ccccc3C[C@H]2CO)c(C(F)(F)F)c1Cl [Example 195, 4-(4-Chloro-3-(dipropylamino)-5-(trifluoromethyl)-1H-pyrazol-1-yl)-N-(8-chloronaphthalen-2-ylsulfonyl)-3-((S)-3-(hydroxymethyl)-1,2,3,4-tetrahydroisoquinoline-2-carbonyl)benzamide] | 290 | 30 |
| CCCCN(CCCC)C(=O)c1cn(C)c(-c2ccc(C(=O)NS(=O)(=O)c3ccc4ccccc4c3)cc2C(=O)N2CCc3ccccc3C2)n1 [Example 264, N,N-Dibutyl-1-methyl-2-(4-(naphthalen-2-ylsulfonylcarbamoyl)-2-(1,2,3,4-tetrahydroisoquinoline-2-carbonyl)phenyl)-1H-imidazole-4-carboxamide] | 40 | 110 |
| CCCCN(CCCC)C(=O)c1cn(CC(=O)NC)c(-c2ccc(C(=O)NS(=O)(=O)c3ccc4ccccc4c3)cc2C(=O)N2CCc3ccccc3C2)n1 [Example 265, N,N-Dibutyl-1-(2-(methylamino)-2-oxoethyl)-2-(4-(naphthalen-2-ylsulfonylcarbamoyl)-2-(1,2,3,4-tetrahydroisoquinoline-2-carbonyl)phenyl)-1H-imidazole-4-carboxamide] | 70 | 430 |
| CCCN(CCC)c1ncc(Cl)c(-c2ccc(C(=O)NS(=O)(=O)c3ccc4cccc(Cl)c4c3)cc2C(=O)N2Cc3ccccc3C[C@H]2CN)n1 [Example 329, 3-((S)-3-(Aminomethyl)-1,2,3,4-tetrahydroisoquinoline-2-carbonyl)-4-(5-chloro-2-(dipropylamino)pyrimidin-4-yl)-N-(8-chloronaphthalen-2-ylsulfonyl)benzamide] | 20 | 5.09 |
| CCCCN(CCCC)C(=O)c1nn(-c2ccc(C(=O)NS(=O)(=O)c3ccc4ccc(C(=O)N5CCN(C)CC5)cc4c3)cc2C(=O)N2CCc3ccccc3C2)c(C)c1Cl [Example 46, N,N-Dibutyl-4-chloro-5-methyl-1-(4-(7-(4-methylpiperazine-1-carbonyl)naphthalen-2-ylsulfonylcarbamoyl)-2-(1,2,3,4-tetrahydroisoquinoline-2-carbonyl)phenyl)-1H-pyrazole-3-carboxamide] | 40 | 90 |
| CCCCc1c(-c2ccc(C(=O)NS(=O)(=O)c3ccc4ccccc4c3)cc2C(=O)N2Cc3ccccc3C[C@H]2CO)c(CO)nn1-c1ccccc1 [Example 260, 4-(5-Butyl-3-(hydroxymethyl)-1-phenyl-1H-pyrazol-4-yl)-3-((S)-3-(hydroxymethyl)-1,2,3,4-tetrahydroisoquinoline-2-carbonyl)-N-(naphthalen-2-ylsulfonyl)benzamide] | 8.01 | 10 |
| CCCCN(C(=O)c1nn(-c2ccc(C(=O)NS(=O)(=O)c3ccc4ccccc4c3)cc2C(=O)N2CCc3ccccc3C2)c(C)c1Cl)c1ccc(C(=O)OC)cc1 [Example 154, methyl 4-(N-butyl-4-chloro-5-methyl-1-(4-(naphthalen-2-ylsulfonylcarbamoyl)-2-(1,2,3,4-tetrahydroisoquinoline-2-carbonyl)phenyl)-1H-pyrazole-3-carboxamido)benzoate] | 80 | 90 |
| CCCCN(CCCC)C(=O)c1nn(-c2ccc(C(=O)NS(=O)(=O)c3ccc4ccc(OC(C)CN(C)C)cc4c3)cc2C(=O)N2CCc3ccccc3C2)c(C)c1Cl (centres unmarked) [Example 37, N,N-dibutyl-4-chloro-1-(4-(7-(1-(dimethylamino)propan-2-yloxy)naphthalen-2-ylsulfonylcarbamoyl)-2-(1,2,3,4-tetrahydroisoquinoline-2-carbonyl)phenyl)-5-methyl-1H-pyrazole-3-carboxamide] | 10 | 490 |
| Cc1c(Cl)c(C(=O)N(CCC(F)(F)F)CCC(F)(F)F)nn1-c1ccc(C(=O)NS(=O)(=O)c2ccc3ccccc3c2)cc1C(=O)N1CCc2ccccc2C1 [Example 130, 4-chloro-5-methyl-1-(4-(naphthalen-2-ylsulfonylcarbamoyl)-2-(1,2,3,4-tetrahydroisoquinoline-2-carbonyl)phenyl)-N,N-bis(3,3,3-trifluoropropyl)-1H-pyrazole-3-carboxamide] | 30 | 80 |
| CCCCN(Cc1ccc(Cl)c(Cl)c1)c1ncc(Cl)c(-c2ccc(C(=O)NS(=O)(=O)c3ccc4cccc(Cl)c4c3)cc2C(=O)N2CCc3ccccc3C2)n1 [Example 322, 4-(2-(Butyl (3,4-dichlorobenzyl)amino)-5-chloropyrimidin-4-yl)-N-(8-chloronaphthalen-2-ylsulfonyl)-3-(1,2,3,4-tetrahydroisoquinoline-2-carbonyl)benzamide] | 160 | 10 |
| CCCCN(CCCC)C(=O)c1nn(-c2ccc(C(=O)NS(=O)(=O)c3ccc4ccccc4c3)cc2C(=O)N2Cc3ccccc3S(=O)(=O)C2)c(C)c1Cl [Example 104, N,N-Dibutyl-4-chloro-1-(2-(1,1-dioxido-3,4-dihydro-2H-benzo[e][1,3]thiazine-3-carbonyl)-4-(naphthalen-2-ylsulfonylcarbamoyl)phenyl)-5-methyl-1H-pyrazole-3-carboxamide] | 130 | 440 |
